This data set is described as follows: in vitro release of naltrexone from drug delivery devices (Example 1). In kind it is physicochemical. The conditions noted are these: porous membrane about 5-20 mm^2 diffusible area, approximately 70% porosity; phosphate buffer, 37° C. An excerpt: Naltrexone base was compounded with anisic acid at acid:drug ratios of 0:[…] (molar basis), tableted with polyvinylpyrrolidone as a binder and stearic acid as a lubricant (12% and 2% of the final formulation mass, respectively), and loaded into delivery devices equipped with 0.1 micron polyvinylidene fluoride (DURAPORE®) membranes. In a subset of devices, approximately 75% of the available membrane surface area was blocked to measure the influence of surface area upon output rate. All devices were vacuum back-filled with phosphate buffer and transferred to jars containing a volume (˜100 mL) of the same buffer. The sealed jars were then incubated at 37° C., and small aliquots (˜500 μL) of receiving buffer were withdrawn at selected time points to quantify the released drug by high pressure liquid chromatography (HPLC).

Structures can show the parent of a compound that is named as a salt.

One compound from patent US20220280503A1, “COMPOSITIONS OF OPIOID ANTAGONISTS, IMPLANT DEVICES, AND TREATMENT METHODS FOR OPIOID USE DISORDER” (Delpor, Inc., priority 2019, published 2022) can be followed below.

In the case of `O=C1CC[C@@]2(O)[C@H]3Cc4ccc(O)c5c4[C@@]2(CCN3CC2CC2)[C@H]1O5` [naltrexone HCl], the “in vitro elution rate of naltrexone from device” value is reported as “over 50 mg/day”.
